{
  "source": "patent US20060078502A1",
  "about": "“Charge neutral complexes of paramagnetic metals as intracellular magnetic resonance imaging contrast agents” (priority 2004, published 2006)",
  "key": {"[1]": {"test_system": "plasma lipoproteins (VLDL, LDL and HDL)", "experiment": "Kinetics of gadolinium complex binding to plasma lipoproteins", "format": "in vitro ADME", "conditions": "Gd-153 labeled, 60 minutes at room temperature, density gradient separation", "method": "For this study, the galadolinium pyrithione complex labeled with Gd-153 was incubated directly with isolated lipoprotein particles in acetate-citrate buffer or was incubated with intact plasma for 60 minutes at room temperature. Very low, low and high-density lipoproteins (VLDL, LDL and HDL) were separated by cesium chloride density gradients (1.06 and 1.25 g/ml) in an ultracentrifuge (Beckman L8-55) in a swinging bucket rotor using standard protocols. The mixture in 4.5 ml in polyallomer tubes was spun at 210,000 g for 20 hours. The plasma proteins in the […], and layers representing each of VLDL, LDL and HDL were removed from the top of the tube by suction. The amount of gadolinium pyrithione bound to VLDL, LDL, HDL and plasma proteins was measured by counting the radioactivity in each fraction with the gamma well counter. The majority of gadolinium complexes were bound to lipoproteins. Accordingly, the gadolinium-tagged lipoprotein particles are useful to localize the sites of vulnerable plaques in patients, thus identifying the rupture-prone vulnerable plaques in the coronary or carotid arteries with MRI."}, "C3H mouse": {"test_system": "C3H mouse", "experiment": "MRI processing and imaging of a mouse after intravenous administration", "format": "in vivo", "from_the_text": "A Bruker 7.0 Tesla MRI System (BioSpin MRI Gmbh, Avance) operated at 300 MHz was used in this study. The system parameters are optimized for high resolution imaging with either T1-weighted (Gd-complexes) or T2-weighted agents (Fe-complexes). The mouse was placed on a stereotactic holder with a prone position. The holder stayed in the center of the 32 mm bore of the transmitter-receiver RF coil. The tail-vein was cannulated with a 27-29 G needle for delivery of contrast agents via slow infusion. 0.2 ml of 6 μM of the gadolium pyrithione complex was administered per dose. Two doses were administered 27 minutes apart. After acquisition of scout images, T1-weighted data were acquired with a spoiled gradient echo sequence, T1=100 to 700 ms, for example, 200 ms, TR (repetition time)=10 to 500 ms, for example, 13 ms, TE (echo time)=5 to 10 ms, for example, 6 ms, and flip angle=60-90 degree. Data were acquired before and after injection of contrast media to evaluate the reduction of tissue T1-values from 500-700 ms to 100-200 ms with the Gd-complexes or Gd-tagged cells.\nFIG. 1 presents a T1-weighted MR image (coronal slice, 1 mm thickness) of the C3H mouse at 3 minutes after the second intravenous administration of Gd-(tris)pyrithione complex, providing an image at 3 and 30 minutes post administration. […] The conclusion that the complex is stable is reached because, unstable Gd-complexes hydrolyze and Gd-colloids form and localize in the macrophage pool of reticuloendothelial system of liver, spleen and bone marrow."}, "human neutrophils": {"test_system": "human neutrophils", "experiment": "Kinetics of complex loading into cells", "format": "cell-based", "conditions": "37° C., neutrophils in donor plasma, 3.7 mg gadolinium", "method": "Kinetics of Complex Loading into Cells. For this study, human neutrophils were obtained from a single donor and suspended in 50 microliters of the same donor's plasma in a series of test tubes. The neutrophils were incubated at 37° C. with gadolinium pyrithione complex in a shaker bath. The amount of gadolinium pyrithione used for each test tube provided 3.7 mg of gadolinium, which was added to the test tube in 250 microliters of acetate buffer. After various incubation times, the neutrophil cells were centrifuged, washed with buffer and the amount of neutrophil-bound gadolinium was calculated."}, "[2]": {"experiment": "Storage stability of the complex (solution formulation, lyophilized)", "format": "physicochemical", "conditions": "after one year of storage in the refrigerator; acetate-dextrose buffer, pH 6.4", "method": "The contrast agent of the invention can be packaged into kit form. Conveniently, the complexes are formed as described herein, sterilized, filled into sterile bottles and then freeze-dried (lyophilized). The lyophilized complex is stable when stored for at least one year at 4° C. The lyophilized complex is reconstituted in acetate buffer (about 0.2 M NaOAc, pH 6.0 to 6.4) to the desired concentration for injection for use.\nFifty microliters of the gadolinium chloride solution is mixed with 250-400 microliters of the pyrithione solution. A white precipitate of gadolinium pyrithione complex is formed, which is vortexed for good mixing. The gadolinium pyrithione complex is dissolved in 1250 microliters of 0.2 molar acetate-dextrose buffer. The final pH is adjusted to 6.4 with a pH electrode (Beckman-Coulter). The osmolarity of the solution is checked by the freezing point method to 275 mOsmole. The gadolinium pyrithione complex solution is sterilized by membrane filtration (0.22 micrometer filter) and stored in a refrigerator.\n(§1) This formulation is found to be stable after one year of storage in the refrigerator. It is soluble in 0.2 molar acetate buffer, in a mixture of acetate buffer and saline or human plasma facilitating the storage of Gd-complex, its transport and control of reconstitution by adjustment of injectate volume, and its use in cell-tagging and administration of tagged cells."}, "[3]": {"experiment": "Solubility of the complex", "format": "physicochemical", "conditions": "0.2 molar acetate buffer; mixture of acetate buffer and saline or human plasma", "from_the_text": "A paramagnetic metal atom has one or more unpaired […], providing a half-integral “spin” quantum number. For metal complex MRI contrast agents, the MRI relaxation efficiency per molecule depends on the nature of the metal in the chelate complex and the size of the metal chelate complex. These contrast agents serve as relaxation sinks for the protons of adjacent water molecules. The metal complex lattice receives the energy from the protons excited by radiofrequency (RF) pulses. […] This facilitates energy transfer, and provides increased imaging efficiency. The complexes of the present invention are soluble in lipids and provide relaxivities in the range 50-150 millimole^−1 second^−1. The gadolinium complexes of this invention, for instance, provide T1 relaxivity values of 80 per millimole per second and T2 values of 93 millimole^−1 second^−1. The complexes of the present invention are thus particularly useful as intra-cellular MRI contrast agents.\nas §1"}},
  "data": [
    {"smiles": "[Gd+3].[O-][n+]1ccccc1[S-].[O-][n+]1ccccc1[S-].[O-][n+]1ccccc1[S-]", "note": "[gadolinium pyrithione complex, gadolinium (tris)pyrithione]", "values": [
      {"measurement": "fraction of complex bound to lipoproteins", "setting": "[1]", "result": "majority"},
      {"measurement": "imaging of liver, spleen and bone marrow (reticuloendothelial system)", "setting": "C3H mouse; 3 and 30 minutes post administration", "result": "None of these tissues were imaged"},
      {"measurement": "in vivo stability of the agent", "setting": "C3H mouse; C3H mouse, intravenous, two doses 27 minutes apart, T1-weighted MRI", "result": "stable"},
      {"measurement": "localization in late phase", "setting": "C3H mouse; thirty minutes after the first administration", "result": "bladder"},
      {"measurement": "localization in early phase post-IV injection", "setting": "C3H mouse; three minutes after the second administration", "result": "heart"},
      {"measurement": "Gadolinium (% in cells)", "setting": "human neutrophils; incubation time 05 minutes", "result": 99.21, "unit": "%"},
      {"measurement": "Gadolinium (% in cells)", "setting": "human neutrophils; incubation time 10 minutes", "result": 99.75, "unit": "%"},
      {"measurement": "Gadolinium (% in cells)", "setting": "human neutrophils; incubation time 30 minutes", "result": 99.36, "unit": "%"},
      {"measurement": "Gadolinium (% in cells)", "setting": "human neutrophils; incubation time 45 minutes", "result": 99.11, "unit": "%"},
      {"measurement": "stability of formulation on storage", "setting": "[2]", "result": "stable"},
      {"measurement": "solubility", "setting": "[3]", "result": "soluble"}
    ]}
  ]
}
